For 60 molecules, Ki results are on record in ChEMBL document CHEMBL1135740, “Design, synthesis, and activity of a novel series of factor Xa inhibitors: optimization of arylamidine groups” (J Med Chem, 2002).

As a reminder, the Ki is the dissociation constant of the complex between target and ligand, obtained from inhibition or displacement.

SMILES strings stand for the structures.

The target of one test is T1, Serine protease 1 (Bos taurus, UniProt P00760).
T1 sequence (P00760 whole entry): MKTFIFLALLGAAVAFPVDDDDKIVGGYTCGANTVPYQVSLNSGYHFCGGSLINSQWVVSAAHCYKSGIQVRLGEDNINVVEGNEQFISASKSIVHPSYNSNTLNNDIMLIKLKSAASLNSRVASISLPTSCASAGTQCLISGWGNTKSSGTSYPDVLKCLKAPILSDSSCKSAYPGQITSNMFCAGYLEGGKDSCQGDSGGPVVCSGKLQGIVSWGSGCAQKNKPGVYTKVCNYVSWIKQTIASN
In words: Inhibitory constant against bovine trypsin for general specificity against serine proteases.

A further test addresses Coagulation factor X (Homo sapiens, UniProt P00742). In words: Inhibitory constant against human coagulation factor Xa (fXa).
For a further test, the target named is Prothrombin (Homo sapiens, UniProt P00734). Nature of the test: Inhibitory constant against human coagulation factor II (thrombin) for selectivity within coagulation cascade.

Chain of Coagulation factor X (P00742 41-179 limits assumed): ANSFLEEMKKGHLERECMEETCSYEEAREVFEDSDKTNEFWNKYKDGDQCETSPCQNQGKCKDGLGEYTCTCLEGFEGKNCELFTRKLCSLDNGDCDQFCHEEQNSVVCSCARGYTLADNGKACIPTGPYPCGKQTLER
Chain of Coagulation factor X (P00742 235-488 limits assumed): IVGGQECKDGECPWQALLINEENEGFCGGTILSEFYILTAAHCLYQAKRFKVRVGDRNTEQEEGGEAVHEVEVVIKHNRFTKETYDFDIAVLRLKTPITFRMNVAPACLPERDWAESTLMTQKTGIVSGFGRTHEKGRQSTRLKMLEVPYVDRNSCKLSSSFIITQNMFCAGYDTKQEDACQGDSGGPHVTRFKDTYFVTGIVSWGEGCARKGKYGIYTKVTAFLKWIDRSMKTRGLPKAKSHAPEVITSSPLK

Regarding `Cn1ccnc1-c1cccc(Oc2cc(C(=O)O)cc(Oc3cc(C(=N)N)ccc3O)n2)c1`, the Ki on Serine protease 1 was determined as 650 nM.

For `COc1cc(C(=N)N)cc(Oc2nc(Oc3cccc(C(=O)N(C)C)c3)c(F)c(C)c2F)c1OC`, the Ki was 180 nM on Coagulation factor X, over 5000 nM at Serine protease 1 and over 5000 nM on Prothrombin.

For the molecule `Cc1nccn1-c1cccc(Oc2cc(C(=O)O)cc(Oc3cc(C(=N)N)ccc3O)n2)c1`, the inhibition constant Ki on Coagulation factor X is 8 nM; on Serine protease 1, 580 nM; at Prothrombin, 680 nM.

As for `COc1cccc(Oc2nc(Oc3cccc(C(=N)N)c3)c(F)c(C)c2F)c1`, the Ki at Coagulation factor X came out at 1350 nM; on Prothrombin, 1800 nM.

With `Cc1c(F)c(Oc2cccc(C(=N)N)c2)nc(Oc2cccc(C(=O)Nc3ccccc3)c2)c1F`, the inhibition constant (Ki) on Coagulation factor X and at Prothrombin was over 5000 nM in each case.

`COc1cc(C(=O)N(C)C)cc(Oc2nc(Oc3cccc(C(=N)N)c3)c(F)c(C)c2F)c1OC` showed a Ki at Coagulation factor X of over 5000 nM.

Regarding `COc1ccc(C(=N)N)cc1Oc1nc(Oc2cccc(C(=O)N(C)C)c2)c(F)c(C)c1F`, on Coagulation factor X, the inhibition constant (Ki) was determined as 720 nM. This lies in the sub-micromolar range.

Regarding `COc1cc(Oc2nc(Oc3cccc(C(=O)N(C)C)c3)c(F)c(C)c2F)c(O)c(C(=N)N)c1`, the Ki on Coagulation factor X, at Serine protease 1 and at Prothrombin was over 5000 nM in each case.

For the molecule `Cc1c(F)c(Oc2cccc(C(=N)N)c2)nc(Oc2cccc(C(=O)N(C)Cc3ccccc3)c2)c1F`, at Coagulation factor X, the Ki worked out at 2400 nM.

With `CN(C)C(=O)c1cccc(Oc2cc(C(=O)O)cc(Oc3cccc(C(=N)N)c3)n2)c1`, the values for the inhibitory constant (Ki) on Coagulation factor X, on Serine protease 1 and on Prothrombin were 263 nM, 730 nM and over 5000 nM, respectively.

For `COc1cc(Oc2nc(Oc3cccc(C(=N)N)c3)c(F)c(C)c2F)cc(C(=O)N(C)C)c1`, the values for the Ki on Coagulation factor X, at Serine protease 1 and on Prothrombin were 140 nM, 750 nM and over 5000 nM, respectively.

On to `CCN(CC)c1cccc(Oc2nc(Oc3cccc(C(=N)N)c3)c(F)c(C)c2F)c1`, for which the Ki came out at 400 nM at Coagulation factor X, 2100 nM on Serine protease 1 and 730 nM at Prothrombin.

The molecule `Cc1c(F)c(Oc2cccc(C(=N)N)c2)nc(Oc2cccc(C(O)C(N)=O)c2)c1F` (stereo not given) returned a Ki on Coagulation factor X of 370 nM.

`COc1ccc(C(=N)N)cc1Oc1nc(Oc2cccc(N(C)C)c2)c(F)c(C)c1F` gave a Ki on Coagulation factor X of 1400 nM.

Turning to `Cc1c(F)c(Oc2cccc(C(=N)N)c2)nc(Oc2cccc(C(=O)N(C)C)c2O)c1F`, the Ki at Coagulation factor X stood at 4500 nM.

`Cc1c(F)c(Oc2cccc(C(=O)N(C)C)c2)nc(Oc2cc(C(=N)N)ccc2O)c1F`: affinity at Coagulation factor X was put at a Ki of 1.8 nM.

Turning to `Cc1c(F)c(Oc2cccc(C(=N)N)c2)nc(Oc2cc(O)cc(C(=O)N(C)C)c2)c1F`, the Ki at Coagulation factor X is over 5000 nM; on Serine protease 1, 1900 nM; on Prothrombin, 740 nM.

As to `N=C(N)c1ccc(O)c(Oc2cc(C(=O)O)cc(Oc3cccc(NCCN)c3)n2)c1`, the Ki on Coagulation factor X turned out to be 78 nM; at Serine protease 1, 350 nM; at Prothrombin, 3400 nM.

With `Cc1c(F)c(Oc2cccc(CCC(N)=O)c2)nc(Oc2cccc(C(=N)N)c2)c1F`, the Ki at Coagulation factor X was 700 nM; at Serine protease 1, over 5000 nM.

For `Cc1c(F)c(Oc2cccc(C(=O)N(C)C)c2)nc(Oc2cc(C(=N)N)ccc2NS(=O)(=O)C(F)(F)F)c1F`, on Coagulation factor X, the Ki was over 5000 nM.

On to `Cc1c(F)c(Oc2cccc(C(=N)N)c2)nc(Oc2cccc(N3CCOCC3)c2)c1F`, for which the Ki at Coagulation factor X was 650 nM; on Serine protease 1, 2000 nM; at Prothrombin it was over 5000 nM.

For the molecule `CCN(CC)C(=O)c1cccc(Oc2nc(Oc3cccc(C(=N)N)c3)c(F)c(C)c2F)c1`, the inhibition constant (Ki) at Coagulation factor X stood at 690 nM.

For `Cc1cn(C)c(-c2cccc(Oc3cc(C(=O)O)cc(Oc4cc(C(=N)N)ccc4O)n3)c2)n1`, the inhibition constant (Ki) was 8.4 nM at Coagulation factor X, 470 nM on Serine protease 1 and 880 nM on Prothrombin.

For the molecule `Cc1c(F)c(Oc2cccc(C(=N)N)c2)nc(Oc2cccc(C(=O)N3CCN(C)CC3)c2)c1F`, the Ki on Coagulation factor X was over 5000 nM.

Regarding `COc1ccc(C(=N)N)c(OC)c1Oc1nc(Oc2cccc(N(C)C)c2)c(F)c(C)c1F`, the inhibitory constant (Ki) at Coagulation factor X was over 5000 nM.

Consider `CNC(=O)c1cccc(Oc2nc(Oc3cccc(C(=N)N)c3)c(F)c(C)c2F)c1`, for which affinity at Coagulation factor X was put at a Ki of 1200 nM.

As to `Cc1c(F)c(Oc2cccc(C(=O)N(C)C)c2)nc(Oc2cccc(C(=N)N)c2O)c1F`, the inhibition constant Ki on Coagulation factor X, on Serine protease 1 and on Prothrombin was over 5000 nM each time.

`COc1cc(Oc2nc(Oc3cccc(C(=O)N(C)C)c3)c(F)c(C)c2F)cc(C(=N)N)c1`: the Ki at Coagulation factor X was 2700 nM.

As to `Cc1c(F)c(Oc2cccc(C(=N)N)c2)nc(Oc2cccc(C(=O)N3CCOCC3)c2)c1F`, the results for the Ki at Coagulation factor X, on Serine protease 1 and on Prothrombin were 1400 nM, over 5000 nM and over 5000 nM, respectively.

In turn, `Cc1ccc(C(=N)N)cc1Oc1nc(Oc2cccc(N(C)C)c2)c(F)c(C)c1F` showed an inhibition constant (Ki) at Coagulation factor X of 1200 nM.

Regarding `CCOC(=O)Cc1cccc(Oc2nc(Oc3cccc(C(=N)N)c3)c(F)c(C)c2F)c1`, the Ki is 810 nM on Coagulation factor X, over 5000 nM at Serine protease 1 and over 5000 nM on Prothrombin.

Take `Cc1c(F)c(Oc2cccc(C(=N)N)c2)nc(Oc2cccc(C(=O)C(C)C)c2)c1F`: the Ki at Coagulation factor X was 2100 nM; on Serine protease 1, 3800 nM; on Prothrombin it was over 5000 nM.

For the molecule `Cc1c(F)c(Oc2cccc(CC(=O)O)c2)nc(Oc2cccc(C(=N)N)c2)c1F`, the Ki on Coagulation factor X, at Serine protease 1 and on Prothrombin was over 5000 nM each time.

`COc1ccc(N(C)C)cc1Oc1nc(Oc2cccc(C(=N)N)c2)c(F)c(C)c1F`: the Ki is over 5000 nM on Coagulation factor X, over 5000 nM on Serine protease 1 and 2200 nM at Prothrombin.

Take `Cc1c(F)c(Oc2cccc(CC(N)=O)c2)nc(Oc2cccc(C(=N)N)c2)c1F`: the inhibitory constant (Ki) was 280 nM on Coagulation factor X, over 5000 nM at Serine protease 1 and over 5000 nM on Prothrombin.

Take `Cc1c(F)c(Oc2cccc(C(=N)N)c2)nc(Oc2cccc([N+](=O)[O-])c2)c1F`: the inhibition constant (Ki) on Coagulation factor X is 2500 nM; on Serine protease 1, over 5000 nM; on Prothrombin, over 5000 nM.

Take `CC(=O)c1cccc(Oc2nc(Oc3cccc(C(=N)N)c3)c(F)c(C)c2F)c1`: the Ki on Coagulation factor X was 1400 nM; on Prothrombin it was over 5000 nM.

With `CC(=O)Nc1cccc(Oc2nc(Oc3cccc(C(=N)N)c3)c(F)c(C)c2F)c1`, affinity on Coagulation factor X was put at a Ki of 5800 nM. This lies in the single-digit micromolar range.

Turning to `Cc1c(F)c(Oc2cccc(CC(=O)N(C)C)c2)nc(Oc2cccc(C(=N)N)c2)c1F`, the results for the inhibition constant (Ki) at Coagulation factor X, on Serine protease 1 and on Prothrombin were 460 nM, 4200 nM and over 5000 nM, respectively.

For the molecule `Cc1ccc(C(=O)N(C)C)cc1Oc1nc(Oc2cccc(C(=N)N)c2)c(F)c(C)c1F`, at Coagulation factor X, the inhibition constant Ki is over 5000 nM.

In the case of `Cc1c(F)c(Oc2cccc(C(=N)N)c2)nc(Oc2cccc([S+]([O-])N(C)C)c2)c1F` (stereo not given), the results for the Ki on Coagulation factor X, at Serine protease 1 and on Prothrombin were 720 nM, 2400 nM and over 5000 nM, respectively.

For the molecule `Cc1c(F)c(Oc2cccc(Nc3ccccc3)c2)nc(Oc2cccc(C(=N)N)c2)c1F`, the Ki was 1800 nM on Coagulation factor X, over 5000 nM on Serine protease 1 and 3800 nM at Prothrombin.

With `Cc1c(F)c(Oc2cccc(N(C)C)c2)nc(Oc2cc(C(=N)N)ccc2O)c1F`, the results for the inhibitory constant (Ki) on Coagulation factor X, at Serine protease 1 and on Prothrombin were 3 nM, 1000 nM and 190 nM, respectively.

Consider `Cc1c(F)c(Oc2cccc(C(=N)N)c2)nc(Oc2cccc(C(F)(F)F)c2)c1F`, for which the values for the inhibition constant (Ki) at Coagulation factor X and at Prothrombin were 1600 nM and over 5000 nM, respectively.

In the case of `CCNc1cccc(Oc2nc(Oc3cccc(C(=N)N)c3)c(F)c(C)c2F)c1`, the Ki at Coagulation factor X is 530 nM; on Serine protease 1 it was 2700 nM; on Prothrombin, over 5000 nM.

As for `COc1ccc(Oc2nc(Oc3cccc(C(=N)N)c3)c(F)c(C)c2F)cc1C(=O)N(C)C`, the figures for the Ki on Coagulation factor X, at Serine protease 1 and on Prothrombin were 1400 nM, 450 nM and 3000 nM, respectively.

As to `Cc1c(F)c(Oc2cccc(CO)c2)nc(Oc2cccc(C(=N)N)c2)c1F`, the inhibition constant Ki at Coagulation factor X is 1300 nM.

`Cc1c(F)c(Oc2cccc(O)c2)nc(Oc2cccc(C(=N)N)c2)c1F`: on Coagulation factor X, the Ki came to 5000 nM.

Regarding `Cc1c(F)c(Oc2cccc(C(=N)N)c2)nc(Oc2cc(C(=O)N(C)C)ccc2O)c1F`, the inhibition constant (Ki) at Coagulation factor X was over 5000 nM; on Serine protease 1, 3700 nM; on Prothrombin it was over 5000 nM.

Turning to `Cc1c(F)c(Oc2cccc(CN)c2)nc(Oc2cccc(C(=N)N)c2)c1F`, the inhibitory constant (Ki) was 1400 nM on Coagulation factor X, 2900 nM at Serine protease 1 and over 5000 nM on Prothrombin.

In the case of `CCOC(=O)c1ccc(N(C)C)cc1Oc1nc(Oc2cccc(C(=N)N)c2)c(F)c(C)c1F`, the inhibition constant Ki on Coagulation factor X, at Serine protease 1 and at Prothrombin was over 5000 nM throughout.

As to `Cc1c(F)c(Oc2cccc(F)c2)nc(Oc2cccc(C(=N)N)c2)c1F`, the Ki on Coagulation factor X is 3200 nM.

Take `Cc1c(F)c(Oc2cccc(C(=N)N)c2)nc(Oc2ccc(O)c(C(=O)N(C)C)c2)c1F`: the affinity on Coagulation factor X, expressed as Ki, was 2000 nM.

Consider `COc1c(Oc2nc(Oc3cccc(C(=N)N)c3)c(F)c(C)c2F)cccc1C(=O)N(C)C`, for which the affinity at Coagulation factor X corresponds to a Ki of 2400 nM.

`Cc1c(F)c(Oc2cccc(Cl)c2)nc(Oc2cccc(C(=N)N)c2)c1F`: the inhibition constant Ki at Coagulation factor X was 1700 nM; on Prothrombin it was over 5000 nM.

Turning to `Cc1c(F)c(Oc2cccc(N(C)C)c2)nc(Oc2cc(C(=N)N)ccc2N)c1F`, the Ki on Coagulation factor X amounted to 64 nM; on Serine protease 1 it was 400 nM; on Prothrombin, 300 nM.

`Cc1c(F)c(Oc2cccc(OC(F)(F)F)c2)nc(Oc2cccc(C(=N)N)c2)c1F`: the inhibition constant Ki at Coagulation factor X is 1800 nM; at Serine protease 1, over 5000 nM; at Prothrombin, over 5000 nM.

On to `Cc1c(Oc2nc(Oc3cccc(C(=N)N)c3)c(F)c(C)c2F)cccc1N(C)C`, for which the Ki on Coagulation factor X amounted to 320 nM; on Serine protease 1, 5000 nM; at Prothrombin, 950 nM.

As for `CN(C)c1cccc(Oc2cc(C(=O)O)cc(Oc3cc(C(=N)N)ccc3O)n2)c1`, the inhibition constant Ki at Coagulation factor X stood at 12 nM; at Serine protease 1, 750 nM; on Prothrombin, 120 nM.

As for `Cc1c(F)c(Oc2cccc(NC(N)=O)c2)nc(Oc2cccc(C(=N)N)c2)c1F`, the Ki is 4000 nM on Coagulation factor X, over 5000 nM on Serine protease 1 and over 5000 nM at Prothrombin.
